Assay results from patent US10577322B2, “5-methoxytryptophan and its derivatives and uses thereof” (National Health Research Institutes, priority 2015, dated 2020).

Experiments:
[1] = tested on: RAW264.7 cells; experiment: Cell viability by MTT assay; type: cell-based, mouse; details: 24 h
Description: Furthermore, RAW264.7 cells were treated with different concentrations of 5-MTP or 5-MTPE for 24 h. Cell viability was determined by MTT assay. In another experiment, after pretreating RAW264.7 cells with different concentrations of 5-MTP or 5-MTPE for 30 min, cells were stimulated with LPS for 24 h. IL-6 level in culture supernatants was measured by ELISA.

[2] = tested on: caspase-3; experiment: Cleaved caspase-3 immunohistochemistry in lung tissues; type: in vivo, mice; details: LPS 60 mg/kg, 12 and 16 h
Description: Prior to immunohistochemical detection of COX-2, iNOS, Ly6g, or cleaved caspase-3 in lung sections, sections were deparaffinized with xylene, progressively rehydrated through graded alcohols. Antigen sites were retrieved by heating the sections on slides in pH 8 EDTA antigen. retrieval (Trilogy; Cell Marque Corporation) in electric pressure cooker for 15 min. […] All antibodies described hereafter were diluted in blocking buffer. Sections were incubated at room temperature for 2 h with primary antibody and then washed in PBST. The sections were incubated with primary antibody amplifier quanta (Thermo) for 10 minutes. After rinsing with PBST, the sections were incubated with HRP Polymer Quanto (Thermo) for 10 minutes and washed three times with PBST. COX-2, iNOS, Ly6g and cleaved caspase-3 were visualized by the addition of DAB Quanto Chromogen: Substrate for 3 minutes. Tissues were also counterstained with hematoxylin.
Paraffin-embedded sections were prepared from lung tissues of mice treated with saline or LPS (60 mg/kg) with or without various concentrations of 5-MTP for 12 or 16 h. Activated caspase-3 level in lung tissues was determined by immunohistochemical staining of cleaved caspase-3. The results are shown in FIG. 9A, in which scale bars represent 200 μm.

[3] = tested on: chemokines; experiment: Serum chemokine level in LPS-injected mice (ELISA); type: in vivo; details: 5-MTP 23.4 mg/kg, 24 h
Description: Furthermore, chemokine level was measured by ELISA in the serum of saline or LPS-injected mice with or without saline or 5-MTP (23.4 mg/kg) after 24 h (n=10). The results shown in FIG. 8C indicate that LPS-induced elevation of chemokines, CXCL1, MCP-1, RANTES and eotaxin in the serum was blunted by 5-MTP treatment at 24 h.

[4] = tested on: proinflammatory cytokines; experiment: LPS-induced proinflammatory cytokines in peritoneal macrophages (ELISA); type: cell-based, mouse; details: LPS 24 h
Description: For peritoneal macrophage isolation, C57BL/6J mice were injected intraperitoneally with 2 ml of 4% thioglycollate. Four days after injection, the peritoneal cavity was washed with 5 ml of ice-cold RPMI1640 medium, and cells from the peritoneal exudates were collected by centrifugation, and suspended in RPMI1640 medium, then seeded on 15-cm dishes and allowed to adhere for 4 h. Floating cells were washed out, and adherent cells were used as peritoneal macrophages in the experiments. The cells were incubated with or without LPS (100 ng/ml) for the indicated time before each experiment, as in the protocol for the RAW264.7 cells.
Cytokine levels in the culture supernatants and serum were determined in microtiter plates (96-well) by a specific sandwich ELISA (Biosource) as previously described (Wu, J. Y. & Kuo, C. C. Pivotal role of ADP-ribosylation factor 6 in Toll-like receptor 9-mediated immune signaling. J Biol Chem 287, 4323-4334 (2012)) (Lee, G. L., et al. TLR 2 induces vascular smooth muscle cell migration through cAMP response element-binding protein-mediated interleukin-6 production. Arterioscler Thromb Vasc Biol 32, 2751-2760 (2012); hereinafter, Lee, G. L., et al.).
Furthermore, peritoneal macrophages were stimulated with LPS with or without 5-MTP. After 24 h, proinflammatory cytokines were measured by ELISA.

[5] = tested on: NF-κB p65; experiment: Phospho-p65 level in lung tissues (ELISA kit); type: in vivo, mice; details: 4 and 8 h after LPS, 5-MTP 23.4 mg/kg
Description: Since NF-κB activation plays a critical role in the initiation and progression of systemic inflammation and septic pathology, the effect of 5-MTP on NF-κB activation in lung tissue was evaluated. Phospho-p65 level in lung tissues was determined by an ELISA kit at 4 and 8 h after LPS infusion with or without 5-MTP (23.4 mg/kg) (n=6 mice/group).

SMILES | cell viability (MTT) [1] | cleaved caspase-3 in lung tissues [2] | LPS-induced elevation of CXCL1 in serum [3] | LPS-induced elevation of MCP-1 in serum [3] | LPS-induced elevation of RANTES in serum [3] | LPS-induced elevation of eotaxin in serum [3] | IL-1β production [4] | IL-6 production [4] | TNF-α production [4] | phosphorylation level of NF-κB p65 in lung tissues [5]
COC(=O)C(N)Cc1c[nH]c2ccc(OC)cc12 (stereo not shown) [5-MTPE, ester-5-MTP] | not cell viability |  |  |  |  |  |  |  |  | 
COc1ccc2[nH]cc(C[C@H](N)C(=O)O)c2c1 [5-MTP, 5-methoxytryptophan] |  | reduced by 5-MTP | blunted | blunted | blunted | blunted | inhibited | inhibited | inhibited | reduced by 5-MTP
